Data on five compounds can be found in ChEMBL document CHEMBL1128206, “Substituted 2-azaspiro[5.3]nonan-1-ones as potent cholesterol absorption inhibitors: defining a binding conformation for SCH 48461” (1995).

Molecules are shown by their SMILES.

Experiment [1] can be described thus: Compound was evaluated in vivo for the reduction of liver cholesterol ester level at the rate 10 mpk. Format: functional.
Experiment [2] in a line: Compound was evaluated in vivo for the reduction of liver cholesterol ester level at the rate 50 mpk. The experiment is classed as functional.
The nature of experiment [3]: Compound was evaluated in vivo for the reduction of liver cholesterol ester level at the rate 5 mpk. The experiment is classed as functional.
The test system of experiment [4] is Cricetinae gen. sp. In words: Effective concentration was evaluated when liver cholesterol ester level reduction was 17%. Format: functional, Cricetulus griseus.
The subject of experiment [5] is Cricetinae gen. sp. The experiment is described as follows: Effective concentration was evaluated when liver cholesterol ester level reduction was 87%. The experiment is classed as functional, Cricetulus griseus.

For the compound `COc1ccc([C@@H]2[C@H](CCCc3ccccc3)C(=O)N2c2ccc(OC)cc2)cc1`, the values for the L/CE in experiment [1] and in experiment [2] were 69% and 0%, respectively.

As for `COc1ccc([C@@H]2[C@@H](CCCc3ccccc3)C(=O)N2c2ccc(OC)cc2)cc1` [SCH-48461], the results for the L/CE in experiment [2] and in experiment [3] were 0% and 66%, respectively.

A word on the ED50: it is the dose at which the effect has come halfway, by size or by number of responders. Read a low ED50 as greater potency. As for `COc1ccc([C@@H]2N(c3ccc(OC)cc3)C(=O)C23CCC(c2ccccc2)CC3)cc1` (stereo partly drawn), the ED50 was 3 mg/kg with Cricetinae gen. sp. [4] and over 50 mg/kg in the experiment with Cricetinae gen. sp. [5].

In experiment [1], `COc1ccc([C@H]2[C@@H](CCCc3ccccc3)C(=O)N2c2ccc(OC)cc2)cc1` registered a L/CE of 0%.

`COc1ccc([C@H]2[C@H](CCCc3ccccc3)C(=O)N2c2ccc(OC)cc2)cc1` returned a L/CE in experiment [3] of 0%.
